Marks after values point to notes of the source that are not given here.
Legend:
[1] = tested on: human primary hepatic stellate cells (hHSC); assay: PDGF-BB-induced hHSC proliferation, BrdU incorporation; format: cell-based; conditions: PDGF-BB 10 ng/ml; for Inhibition of the PDGF-BB-induced hHSC proliferation: BrdU Incorporation: 10 μM
Procedure: (§1) Compounds were dissolved in dimethyl sulfoxide (DMSO, Fluka cat #41640)
(§2) The human primary hepatic stellate cells (hHSC) (ScienCell) were cultured in STeCM medium (ScienCell cat #5301) that was supplemented with 2% fetal bovine serum (FBS, ScienCell cat #0010), 1% penicillin/streptomycine (ScienCell cat #0503) and stellate cell growth supplement (SteCGS; ScienCell cat #5352). Culture plastics were coated with Poly-L Lysine (Sigma cat # P4707).
hHSC were plated at a density of 1.2×10^4 cells/well into 96-well plates and were cultured overnight at 37° C. and 5% CO2, followed by washing of cells with PBS (Invitrogen cat #14190) and replacing the growth medium with a serum-free and SteCGS-free medium for an additional 24 hours. For PDGF-induced proliferation assay, cells were pre-treated with a compound of General Formula (I) for 1 hour before the addition of PDGF-BB (10 ng/ml; R&D Systems cat #520-BB). Treatments were then continued for additional 20 hours.
Cell proliferation was measured by bromodeoxyuridine (BrdU) incorporation using a BrdU labeling and detection kit (Roche cat #11647229001). BrdU labeling solution was added to cells, followed by incubation for another 4 hours before fixation, addition of nucleases, addition of anti-BrdU-POD and peroxidase substrate. The absorbance at 405 nm (with a reference wavelength at 690 nm) was measured using an ELISA plate reader (Tecan).

[2] = tested on: human primary hepatic stellate cells (hHSC); assay: TGFβ1-induced hHSC activation, gene expression by quantitative PCR; format: cell-based; conditions: TGFβ1 1 ng/ml, 24 hours; for Inhibition of the TGFβ1-induced hHSC activation: Col1α1 / Inhibition of the TGFβ1-induced hHSC activation: Col4α1 / Inhibition of the TGFβ1-induced hHSC activation: αSMA: 10 μM; for inhibition at 10 µM: Homo sapiens
Procedure: as §1, §2
The human primary hepatic stellate cells (hHSC) (ScienCell) were cultured under standard conditions, as described above. For experiments to determine gene expression patterns, hHSC were plated at a density of 7×10^4 cells/well into 24-well plates and were cultured overnight. Next day, culture medium was replaced by serum-free and SteCGS-free medium for an additional 16 hours. Cells were treated with a compound of General Formula (I) in addition to TGFβ1 (1 ng/ml) in a serum-free and SteCGS-free medium for 24 hours.
Total RNA was isolated using Nucleospin® 96 RNA kit (Macherey Nagel) following manufacturer's instructions. 100 ng of total RNA were reverse transcribed in cDNA using M-MLV RT (Moloney Murine Leukemia Virus Reverse Transcriptase) (Invitrogen cat #28025) in presence of RT buffer 1× (Invitrogen), 1 mM DTT (Invitrogen), 0.18 mM dNTPs (Promega), 200 ng pdN6 (Amersham) and 30U of RNase inhibitor (Promega).
Quantitative PCR was then carried out using the CFX96 TOUCH™ Real-Time PCR Detection System (Biorad). Briefly, PCR reactions were performed in 96 well plates on 5 μl of 5× diluted reverse transcription mix using the iQ SYBR Green Supermix kit. The experimental conditions were: 25 μl of volume reaction, 3 mM of MgCl2, and 0.5 μl each of reverse and forward primers (10 pMol).
Expression levels were normalized using the expression of 36B4 gene as reference (sequences SEQ ID NO: 1 and SEQ ID NO: 2 as shown above).
For each gene, the standard curves were drawn by selecting the best points (at least three points) in order to have PCR reaction efficiency close to 100% and a correlation coefficient close to 1. Expression levels were determined using the standard curve equation for both the housekeeping gene and the target gene (taking into account the specific PCR efficiency of each target gene).

Structure (SMILES) | Inhibition of the PDGF-BB-induced hHSC proliferation: BrdU Incorporation [1] | Inhibition of the TGFβ1-induced hHSC activation: Col1α1 [2] | Inhibition of the TGFβ1-induced hHSC activation: Col4α1 [2] | Inhibition of the TGFβ1-induced hHSC activation: αSMA [2] | inhibition at 10 µM ([1]; Homo sapiens) [%] | inhibition at 10 µM ([2]; read-out: Inhibition of the TGFβ1-induced hHSC activation: Col1α1) [%] | inhibition at 10 µM ([2]; read-out: Inhibition of the TGFβ1-induced hHSC activation: Col4α1) [%] | inhibition at 10 µM ([2]; read-out: Inhibition of the TGFβ1-induced hHSC activation: αSMA) [%]
Cc1cc(C=CC(=O)c2ccc(OCCC3CCCCC3)cc2)cc(C)c1OC(C)(C)C(=O)O [Cpd 11 WO2005073184, 1-(4-Cyclohexylethyloxyphenyl)-3-(4-carboxydimethylmethyloxy-3,5-dimethylphenyl)prop-2-en-1-one] | −6%^ | −66% ** | −78% *** | −92% *** | – | – | – | –
COc1ccc(C(=O)C=Cc2cc(C)c(OC(C)(C)C(=O)O)c(C)c2)cc1 [Cpd 80 US20070032543, 1-[4-methyoxyphenyl]-3-[3,5-dimethyl-4-carboxydimethylmethyloxyphenyl]prop-2-en-1-one] | −136% *** | −64% ** | −66% *** | −55% *** | – | – | – | –
Cc1cc(C=CC(=O)c2ccc(Br)cc2)cc(C)c1OC(C)(C)C(=O)O [Cpd 41 WO2004OO5233, 1-[4-bromophenyl]-3-[3,5-dimethyl-4-carboxydimethylmethyloxyphenyl]prop-2-en-1-one] | −34% | −28% | −32% ** | −2% | – | – | – | –
Cc1cc(C=CC(=O)c2ccc(C(F)(F)F)cc2)cc(C)c1OC(C)(C)C(=O)O [Cpd 58 US20070032543, 1-[4-trifluoromethylphenyl]-3-[3,5-dimethyl-4-carboxydimethylmethyloxyphenyl]prop-2-en-1-one] | −5%^ | 55% * | −3% | 5%^ | – | – | – | –
Cc1cc(C=CC(=O)c2ccc(SC(F)(F)F)cc2)cc(C)c1OC(C)(C)C(=O)O [Cpd 54 US20070032543, 1-[4-trifluoromethylthiophenyl]3-[3,5-dimethyl-4-carboxydimethymethyoxyphenyl]prop-2-en-1-one] | 12%^ | −27% | −40% *** | −57% *** | – | – | – | –
CCCCCCSc1ccc(C(=O)C=Cc2cc(C)c(OC(C)(C)C(=O)O)c(C)c2)cc1 [Cpd 84 US20070032543, 1-[4-hexylthiophenyl]-3-[3,5-dimethyl-4-carboxydimethylmethyloxyphenyl]prop-2-en-1-one] | −33% | −60% ** | −64% *** | −64% *** | – | – | – | –
CCc1cc(C=CC(=O)c2ccc(C(C)C)cc2)cc(CC)c1OC(C)(C)C(=O)O [Cpd 56 US20070032543, 1-[4-isopropylphenyl]-3-[3,5-diethyl-4-carboxydimethylmethyloxyphenyl]prop-2-en-1-one] | −127% *** | −62% ** | −66% *** | −87% *** | – | – | – | –
CSc1ccc(C(=O)C=Cc2cc(C(C)C)c(OCC(=O)O)c(C(C)C)c2)cc1 [Cpd 74 US20070032543, 1-[4-methylthiophenyl]-3-[3,5-diisopropyl-4-carboxymethyloxyphenyl]prop-2-en-one] | −127% *** | −82% *** | −85% *** | −97% *** | – | – | – | –
CSc1ccc(C(=O)C=Cc2cc(C)c(OCC(=O)O)c(C)c2)cc1 [Cpd 72 US20070032543, 1-[4-methylthiophenyl]-3-[3,5-dimethyl-4-carboxymethyloxyphenyl]prop-2-en-1-one] | – | – | – | – | 126 | 37 | 51 | 74
CCCCCCOc1ccc(C(=O)C=Cc2cc(C)c(OC(C)(C)C(=O)O)c(C)c2)cc1 [Cpd 33 WO2004OO5233, 1-[4-hexyloxyphenyl]-3-[3,5-dimethyl-4-carboxydimethylmethyloxyphenyl]prop-2-en-1-one] | 35%^ | −58% * | −73% *** | −71% *** | – | – | – | –
Cc1cc(C=CC(=O)c2ccc(Oc3ccccc3)cc2)cc(C)c1OC(C)(C)C(=O)O [Cpd 33 WO2005073184, 1-(4-Phenyloxyphenyl)-3-(4-carboxydimethylmethyloxy-3,5-dimethylphenyl)prop-2-en-1-one] | −127% *** | −37% | 12% ^ | −49% *** | – | – | – | –
Cc1cc(C=CC(=O)c2ccc(Cl)cc2)cc(C)c1OC(C)(C)C(=O)O [Cpd 17 WO2004OO5233, 1-[4-chlorophenyl]-3-[3,5-dimethyl-4-carboxydimethylmethyloxyphenyl]prop-2-en-1-one] | 6% | −29% | −56% *** | −30% *** | – | – | – | –
